Measured values reported in paper PMC8451667 (Emerging Microbes & Infections, 2021).
Where two headings read alike, the source gives them in different places.

Columns and labels:
[1] = test system: A/California/04/2009 (H1N1) Ca/04; assay: microbe, parasite or virus in culture; assay type: cell-based; conditions: Influenza A virus
[2] = test system: Ca/04 OsR (A/California/04/2009 (H1N1)-H275Y); set-up: species or system mice; conditions: mouse, in vivo
[3] = test system: A/California/07/2009 (H1N1); assay: microbe, parasite or virus in culture; assay type: cell-based, Influenza A virus
[4] = H1N1, read-out: EC50 (μM), A/California/04/2009 (H1N1) Ca/04

For `NC12CC3CC(CC(C3)C1)C2` [Amantadine], the EC50 [1, 4] was > 20 µM.

Compound `CCC(CC)O[C@@H]1C=C(C(=O)O)C[C@H](N)[C@H]1NC(C)=O` [Oseltamivir carboxylate] has an EC50 ([1]; H1N1, read-out: EC50 (nM), A/California/04/2009 (H1N1) Ca/04) of 0.0014 ± 0.00032 µM.

Work on `CCOC(=O)C1=C[C@@H](OC(CC)CC)[C@H](NC(C)=O)[C@@H](N)C1` [Oseltamivir, Oseltamivir phosphate, reference compound] yielded a Body weight loss [2] of ~20% and a Survival [2] of 16%.

For `[2H]C(NC12CC3CC(CC(O)(C3)C1)C2)c1ccc(I)s1` (stereo not shown) [UAWJ280, 3-{[(5-iodothiophen-2-yl)(D)methyl]amino}adamantan-1-ol], the EC50 [1, 4] was 0.27 ± 0.04 µM, the “EC50 increase at passage 6” value [3] was 7 fold and the EC50 ([3]; Influenza A virus, H1N1, read-out: EC50 (μM), serial passage) was 0.27 µM. The Body weight loss [2] was ~15%, the Survival [2] was 65% and the Clinical signs ([2]; ip) was “mild clinical signs”.
